In PubChem BioAssay AID1845200 (Molecular Pharmacology Branch, DTP, NCI, 2023):

System: ASPS-1 complex tumor spheroids, viability
Test: Anticancer human tumor ASPS-1 cell line growth inhibition;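 further: spheroids exposed to agents for 7 days after 3 days of growth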;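 on viability, T/C: 100% = DMSO vehicle treated spheroids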
Settings: for IC50: curve of first compound; for viability, T/C: stronger effect = lower value
Method in brief: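 Complex tumor spheroids combined malignant cells with endothelial cells and mesenchymal stem cells. DNA-damaging drugs and DNA repair inhibitors were tested alone and in combination, at half-log dilutions down from clinical Cmax (top 10 microM if Cmax unknown), 0.25% DMSO final.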

[1] = second compound 30 pM, first compound 0.0949 µM
[2] = second compound 30 pM, first compound 0.3 µM
[3] = second compound 30 pM, first compound 0.949 µM
[4] = second compound 30 pM, first compound 3 µM
[5] = second compound 94.9 pM, first compound 0.0949 µM
[6] = second compound 94.9 pM, first compound 0.3 µM
[7] = second compound 94.9 pM, first compound 0.949 µM
[8] = second compound 94.9 pM, first compound 3 µM
[9] = second compound 0.0003 µM, first compound 0.0949 µM
[10] = second compound 0.0003 µM, first compound 0.3 µM
[11] = second compound 0.0003 µM, first compound 0.949 µM
[12] = second compound 0.0003 µM, first compound 3 µM
[13] = second compound 0.000949 µM, first compound 0.0949 µM
[14] = second compound 0.000949 µM, first compound 0.3 µM
[15] = second compound 0.000949 µM, first compound 0.949 µM
[16] = second compound 0.000949 µM, first compound 3 µM
[17] = second compound 0.003 µM, first compound 0.0949 µM
[18] = second compound 0.003 µM, first compound 0.3 µM
[19] = second compound 0.003 µM, first compound 0.949 µM
[20] = second compound 0.003 µM, first compound 3 µM

SMILES	IC50 (second compound 30 pM) [nM]	IC50 (second compound 94.9 pM) [nM]	IC50 (second compound 0.0003 µM) [nM]	IC50 (second compound 0.000949 µM) [nM]	IC50 (second compound 0.003 µM) [nM]	viability, T/C [1] [%]	viability, T/C [2] [%]	viability, T/C [3] [%]	viability, T/C [4] [%]	viability, T/C [5] [%]	viability, T/C [6] [%]	viability, T/C [7] [%]	viability, T/C [8] [%]	viability, T/C [9] [%]	viability, T/C [10] [%]	viability, T/C [11] [%]	viability, T/C [12] [%]	viability, T/C [13] [%]	viability, T/C [14] [%]	viability, T/C [15] [%]	other results
Cn1ncnc1[C@H]1c2n[nH]c(=O)c3cc(F)cc(c23)N[C@@H]1c1ccc(F)cc1 + COc1cc2c(cc1O)CCNC21CSC2c3c(OC(C)=O)c(C)c4c(c3C(COC1=O)N1C(O)C3Cc5cc(C)c(OC)c(O)c5C(C21)N3C)OCO4	> 3000	> 3000	2230	562	< 9.49	101	101	89.3	62.8	98	94	88.8	57.5	85.2	83.3	75.4	40.9	56.7	59.7	45.1	viability, T/C (second compound 30 pM, first compound 0.00949 µM): 102%; viability, T/C (second compound 30 pM, first compound 0.03 µM): 93.8%; viability, T/C (second compound 94.9 pM, first compound 0.00949 µM): 97.3%; viability, T/C (second compound 94.9 pM, first compound 0.03 µM): 97.2%; viability, T/C (second compound 0.0003 µM, first compound 0.00949 µM): 86%; viability, T/C (second compound 0.0003 µM, first compound 0.03 µM): 89.8%; viability, T/C (second compound 0.000949 µM, first compound 0.00949 µM): 70.3%; viability, T/C (second compound 0.000949 µM, first compound 0.03 µM): 63.5%; viability, T/C [16]: 28.4%; viability, T/C (second compound 0.003 µM, first compound 0.00949 µM): 21.5%; viability, T/C (second compound 0.003 µM, first compound 0.03 µM): 21.8%; viability, T/C [17]: 19.4%; viability, T/C [18]: 16.6%; viability, T/C [19]: 13.3%; viability, T/C [20]: 4.87%
O=C(c1cc(Cc2n[nH]c(=O)c3ccccc23)ccc1F)N1CCN(C(=O)C2CC2)CC1 + COc1cc2c(cc1O)CCNC21CSC2c3c(OC(C)=O)c(C)c4c(c3C(COC1=O)N1C(O)C3Cc5cc(C)c(OC)c(O)c5C(C21)N3C)OCO4	26000	22100	13000	2080	< 94.9	114	112	105	107	103	103	108	101	97.8	106	102	98.5	73	75.1	59.5	viability, T/C (second compound 30 pM, first compound 9.49 µM): 106%; viability, T/C (second compound 30 pM, first compound 30 µM): 42.2%; viability, T/C (second compound 94.9 pM, first compound 9.49 µM): 98.6%; viability, T/C (second compound 94.9 pM, first compound 30 µM): 32.5%; viability, T/C (second compound 0.0003 µM, first compound 9.49 µM): 60.3%; viability, T/C (second compound 0.0003 µM, first compound 30 µM): 22.9%; viability, T/C [16]: 45.3%; viability, T/C (second compound 0.000949 µM, first compound 9.49 µM): 21.5%; viability, T/C (second compound 0.000949 µM, first compound 30 µM): 4.17%; viability, T/C [17]: 21.6%; viability, T/C [18]: 22.4%; viability, T/C [19]: 17.4%; viability, T/C [20]: 12.7%; viability, T/C (second compound 0.003 µM, first compound 9.49 µM): 3.59%; viability, T/C (second compound 0.003 µM, first compound 30 µM): 1.41%
